What all share (assay): relative viability (nuclei count vs DMSO), 5 days (fraction); higher = more cells survive
Compound in test [1]: Cc1ccc(F)c(NC(=O)Nc2ccc(-c3cccc4[nH]nc(N)c34)cc2)c1 [Linifanib] + Cc1nc(Nc2ncc(C(=O)Nc3c(C)cccc3Cl)s2)cc(N2CCN(CCO)CC2)n1 [Dasatinib] (partner 0.075 µM)
In short, it runs like this:
(§1)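 Lung cancer cell lines in 1536-well plates were dosed by pin tool the day after seeding, either with one drug alone or with a fixed anchor-drug dose plus five library-drug doses (not always all listed) in √10 steps. After 5 days, cells were fixed and their nuclei stained in one step (final 0.05% Triton X-100, 1% formaldehyde, 1 ug/ml Hoechst), then counted on 4× images. Relative viability is the nuclei count in treated wells divided by that in vehicle wells. Values are medians of duplicate plates.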

Compound in test [2]: Cc1ccc(F)c(NC(=O)Nc2ccc(-c3cccc4[nH]nc(N)c34)cc2)c1 [Linifanib] + CC1(C)CCC(c2ccc(Cl)cc2)=C(CN2CCN(c3ccc(C(=O)NS(=O)(=O)c4ccc(N[C@H](CCN5CCOCC5)CSc5ccccc5)c(S(=O)(=O)C(F)(F)F)c4)cc3)CC2)C1 [Navitoclax] (partner 0.5 µM)
Summed up:
as §1

Compound in test [3]: Cc1ccc(F)c(NC(=O)Nc2ccc(-c3cccc4[nH]nc(N)c34)cc2)c1 [Linifanib] + C[C@]1(O)C[C@@H](c2nc(-c3ccc4ccc(-c5ccccc5)nc4c3)c3c(N)nccn32)C1 [Linsitinib] (partner 1 µM)
Summed up:
as §1

Compound in test [4]: Cc1ccc(F)c(NC(=O)Nc2ccc(-c3cccc4[nH]nc(N)c34)cc2)c1 [Linifanib] + Nc1nc2[nH]cc(CCc3ccc(C(=O)N[C@@H](CCC(=O)O)C(=O)O)cc3)c2c(=O)[nH]1 [Pemetrexed] (partner 0.2 µM)
Summed up:
as §1

Compound in test [5]: Cc1ccc(F)c(NC(=O)Nc2ccc(-c3cccc4[nH]nc(N)c34)cc2)c1 [Linifanib] + Nc1ncn([C@H]2C[C@H](O)[C@@H](CO)O2)c(=O)n1 [Decitabine] (partner 2 µM)
Summed up: as §1

Compound in test [6]: Cc1ccc(F)c(NC(=O)Nc2ccc(-c3cccc4[nH]nc(N)c34)cc2)c1 [Linifanib] + COc1cc2c(Oc3ccc(NC(=O)C4(C(=O)Nc5ccc(F)cc5)CC4)cc3F)ccnc2cc1OCCCN1CCOCC1 [Foretinib] (partner 0.25 µM)
Summed up: as §1

Regarding NCI-H441, the relative viability in test [1] (first compound 0.03162 µM) is 0.646; in test [1] (first compound 0.1 µM), 0.705; in test [1] (first compound 0.3162 µM) it was 0.639; in test [2] (first compound 0.03162 µM), 0.705; in test [2] (first compound 0.1 µM), 0.637; in test [2] (first compound 0.3162 µM), 0.591. Besides, the relative viability came out at 0.528 in test [3] (first compound 0.03162 µM); 0.731 in test [3] (first compound 0.1 µM); 0.547 in test [3] (first compound 0.3162 µM); 0.274 in test [4] (first compound 0.03162 µM); 0.291 in test [4] (first compound 0.1 µM); 0.222 in test [4] (first compound 0.3162 µM). Besides, the relative viability in test [5] (first compound 0.03162 µM) is 0.264; in test [5] (first compound 0.1 µM), 0.291; in test [5] (first compound 0.3162 µM), 0.253; in test [6] (first compound 0.03162 µM) it was 1.08; in test [6] (first compound 0.1 µM) it was 0.945; in test [6] (first compound 0.3162 µM), 1.27.

The values are drawn from the supplement of paper PMC10307832.
